The inhibition is the percentage by which the read-out fell short of the control. For orientation: melting point means the temperature of the solid-liquid transition.

The values below come from patent US9770026B2, “Substituted pyrimidine compound and uses thereof” (Shenyang Sinochem Agrochemicals R&D Co., Ltd., priority 2012, dated 2017).

Series [1] relates to Green peach aphids (Myzus Persicae Sulzer). Description: bioactivity test against green peach aphid, airbrush foliar spray. Particulars: Myzus persicae, foliar, 48 h, contrastive test, read-out: Insecticidal activity against peach aphid (%); for pest or weed control at 10 µg/mL: 10 mg/L; for pest or weed control at 100 µg/mL: 100 mg/L; for pest or weed control at 600 µg/mL: 600 mg/L. The series is classed as in vivo. An outline of the steps: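 Aphids (15-30 per cabbage leaf disc) on moist filter paper were airbrush-sprayed at 10 psi, 0.5 mL, with compound from acetone:methanol (1:1) diluted in water with 0.1% tween 80. Held at 25±1 C, 60±5% RH; survivors counted after 48 hrs to give death rates.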

For series [2] the following is noted: concentration of 50 ppm; cited from earlier work.
A further series deals with rice blast. The series can be described thus: microbe, parasite or virus in culture. Particulars: Pyricularia oryzae; for inhibition at 8.3 ppm: read-out: inhibition rate against rice blast, 8.3 ppm, in vitro. The series is classed as cell-based.
For a further series, the system named is armyworm. Description: bioactivity test against armyworm, airbrush spray. Particulars: 72 h, read-out: Insecticidal activity against armyworm (%); for pest or weed control at 10 µg/mL: 10 mg/L; for pest or weed control at 100 µg/mL: 100 mg/L; for pest or weed control at 600 µg/mL: 600 mg/L. The series is classed as in vivo.
Another series concerns corn rust. Description: protectant activity in vivo against corn rust. To be noted: Zea mays, 168 h; for pest or weed control at 100 µg/mL: read-out: control effect against corn rust (%), 100 mg/L; for pest or weed control at 400 µg/mL: read-out: control effect against corn rust (%), 400 mg/L.
The conditions of series [3]: concentration of 400 and 100 ppm; cited from earlier work.
A further series deals with wheat powdery mildew. The series can be described thus: protectant activity in vivo against wheat powdery mildew. Particulars: Triticum aestivum, 168 h.
The subject of another series is cucumber downy mildew. The series can be described thus: protectant activity in vivo against cucumber downy mildew. Particulars: Cucumis sativus, 168 h.
The test system of a further series is cucumber gray mold. The series can be described thus: fungicidal activity in vitro (inhibition rate) against cucumber gray mold. Particulars: 25 ppm, in vitro; read-out: inhibition rate against cucumber gray mold. The series is classed as cell-based.

With `Clc1ccc(Oc2ccc(CCNc3ncnc4ccccc34)cn2)cc1` [CK18, reference compound], in series [1] (2.5 mg/L), the pest or weed control at 2.5 µg/mL was found to be 0%. In addition, in series [1] (5 mg/L), the pest or weed control at 5 µg/mL is 7%. In [1], the pest or weed control at 10 µg/mL was found to be 51%, the pest or weed control at 100 µg/mL is 71% and the pest or weed control at 600 µg/mL came to 100%. Moreover, the insectcidal activity result in [2] is recorded as “good insectcidal activity”. In the series on rice blast, the inhibition at 8.3 ppm was 0%. In the series with armyworm, the pest or weed control at 10 µg/mL worked out at 14%, the pest or weed control at 100 µg/mL was found to be 43% and the pest or weed control at 600 µg/mL turned out to be 100%. Moreover, in the series on corn rust (read-out: control effect against corn rust (%), 25 mg/L, protectant activity), the pest or weed control at 25 µg/mL is 0%. In the series on corn rust (protectant activity), the pest or weed control at 100 µg/mL was 30% and the pest or weed control at 400 µg/mL was 80%. Also, the fungicidal activity entry in [3] is listed as “good fungicidal activity”.
`FC(F)(F)c1ccc(Oc2ccc(CCNc3ncnc4ccccc34)cn2)cc1` [CK19, reference compound]: the pest or weed control at 10 µg/mL in series [1] was 33%; with armyworm, 7%. Also, the pest or weed control at 100 µg/mL in series [1] came to 86%; in the series with wheat powdery mildew (read-out: control effect against wheat powdery mildew (%), 100 mg/L, protectant activity) it was 0%; in the series on armyworm, 25%; with corn rust (protectant activity), 0%. Moreover, the values for the pest or weed control at 600 µg/mL (in series [1]; with armyworm) were 100% and 86%, respectively. Further, in [2], the insectcidal activity entry is “good insectcidal activity”. Further, the inhibition at 8.3 ppm in the series with rice blast was 0%. Moreover, the pest or weed control at 400 µg/mL in the series on wheat powdery mildew (read-out: control effect against wheat powdery mildew (%), 400 mg/L, protectant activity) is 50%; in the series with corn rust (protectant activity), 70%. In series [3], the fungicidal activity entry is “good fungicidal activity”.
In turn, `COc1cc(OC)nc(Oc2ccc(CCNc3ncnc(C)c3Cl)cc2)n1` [Compound I-4757] displayed a melting point of 119 to 120 °C. Also, the inhibition at 25 ppm in the series with rice blast (read-out: inhibition rate against rice blast, 25 ppm, in vitro) was in the range of 80 to 99%. Moreover, in the series on cucumber downy mildew (read-out: protectant activity against cucumber downy mildew in vivo, 100 ppm), the pest or weed control at 100 ppm was determined as 100%. Besides, the pest or weed control at 400 ppm with cucumber downy mildew (read-out: protectant activity against cucumber downy mildew in vivo, 400 ppm) came out at 100%. The inhibition at 25 ppm in the series with cucumber gray mold is 100%. For the same molecule, the pest or weed control at 400 ppm in the series with wheat powdery mildew (read-out: protectant activity against wheat powdery mildew in vivo, 400 ppm) was 100%. Moreover, the pest or weed control at 25 ppm in the series on corn rust (read-out: protectant activity against corn rust in vivo, 25 ppm) lay within 80 to 99%. Further, in the series with corn rust (read-out: protectant activity against corn rust in vivo, 100 ppm), the pest or weed control at 100 ppm turned out to be 100%. Moreover, the pest or weed control at 400 ppm in the series with corn rust (read-out: protectant activity against corn rust in vivo, 400 ppm) is 100%.
